The source of these data is patent publication US12383555B2, “Methods of treating cancers” (Foghorn Therapeutics Inc., priority 2020, dated 2025).

The test system of data set [1] is AML cell lines (OCIAML5, KASUMI1). As to the kind of experiment: Cancer cell line growth inhibition (Cell-titer glo, GI50, day 3 and day 7), compound 18. Format: cell-based. The note with it: compound 18, 0 to 10 micromolar. How it is done:
Procedure: Uveal melanoma cell lines (92-1, MP41, MP38, MP46), prostate cancer cell lines (LNCAP), lung cancer cell lines (NCIH1299), and immortalized embryonic kidney lines (HEK293T) were plated into 96 well plates with growth media (see Table 1). […] Cells were incubated at 37° C. for 3 days. After 3 days of treatment, the media was removed from the cells, and 30 microliters of TrypLE (Gibco) was added to cells for 10 minutes. Cells were detached from the plates and resuspended with the addition of 170 microliters of growth media. Cells from two DMSO-treated control wells were counted, and the initial number of cells plated at the start of the experiment, were re-plated into fresh-compound containing plates for an additional four days at 37° C. At day 7, cells were harvested as described above.
On day 3 and day 7, relative cell growth was measured by the addition of Cell-titer glo (Promega), and luminescence was measured on an Envision plate reader (Perkin Elmer).
At the time of cell splitting on days 3 and 7, cells were split into new 96 well plates, and fresh compound was added four hours after re-plating.
Procedure: All cell lines described above in Example 2 were also tested as described above with compound 18. In addition, the following cell lines were also tested as follows. […]

In a further data set the test system is AML cell lines (OCIAML5). As to the kind of experiment: Cancer cell line growth inhibition (Cell-titer glo, GI50, day 3 and day 7), compound 17. The note with it: compound 17, 0 to 10 micromolar. The class given is cell-based.
Data set [2] deals with OCI-AML2 human AML tumor cells. As to the kind of experiment: Subcutaneous OCI-AML2 tumor growth in vivo. Also noted: species or system SCID mice. The note with it: 1.5 mg/kg daily for 21 days, oral route; tumor carries a DNMT3A mutation. How it is done:
(§1) Method: SCID mice (Charles River, Wilmington) were inoculated subcutaneously on the right flank with the single cell suspension of OCI-AML2 human AML tumor cells (1×10^7) in 100 μL in RPMI-1640 media. When tumor size reach ˜100 mm^3, the mice were randomized into either Vehicle group (20% HP-β-CD) or Treatment group (Compound 20 at 1.5 mg/kg daily for 21 days per oral route). All dose volumes were adjusted by body weights in terms of mg/kg.

Data set [3] in a line: Tolerability by % body weight change in OCI-AML2 tumor-bearing mice. Format: in vivo. The note with it: 1.5 mg/kg daily for 21 days, oral route. How it is done:
as §1

In data set [4] the test system is EOL-1 human AML tumor cells. As to the kind of experiment: Subcutaneous EOL-1 tumor growth in vivo. On the set-up: species or system BALB/c Nude mice. The note with it: 50 mg/kg daily for 21 days, oral route. How it is done:
(§2) Method: BALB/c Nude mice (Beijing Anikeeper Biotech, Beijing) were inoculated subcutaneously on the right flank with the single cell suspension of EOL-1 or MV4;11 human AML tumor cells (1×10^7) in 100 μL IDMD in 10% Fetal Bovine Serum (FBS). When tumor size reach ˜100 mm3, the mice were randomized into either Vehicle group [20% HP-β-CD) or Treatment group: Compound 19 at 50 mg/kg daily for 21 days per oral route. All dose volumes were adjusted by body weights in terms of mg/kg.

The subject of data set [5] is MV4;11 human AML tumor cells. As to the kind of experiment: Subcutaneous MV4;11 tumor growth in vivo. Also noted: species or system BALB/c Nude mice. The note with it: 50 mg/kg daily for 21 days, oral route. As for the experimental part: as §2
Data set [6] can be described thus: Tolerability by % body weight change in EOL-1 or MV4;11 tumor-bearing mice. The class given is in vivo. The note with it: 50 mg/kg daily for 21 days, oral route; MV4;11 and EOL-1 models. How it is done: as §2

Turning to `CSCC[C@H](NC(=O)c1ccn(S(C)(=O)=O)c1)C(=O)Nc1nc(-c2cccc(-c3ccncc3)c2)cs1` [Compound 18, (S)-1-(methylsulfonyl)-N-(4-(methylthio)-1-oxo-1-((4-(3-(pyridin-4-yl)phenyl)thiazol-2-yl)amino)butan-2-yl)-1H-pyrrole-3-carboxamide], the “Duration of inhibition of the AML cell lines (FIG. 2)” value in data set [1] is on record as “maintained through day 7”. Besides, in data set [1] (day 3 and day 7), the “Sensitivity of the AML cell lines relative to the other tested cell lines (GI50, FIG. 2)” value is given as “more sensitive to BRG1/BRM inhibition than the other tested cell lines”.
Consider `CSCC[C@H](NC(=O)c1ccc(N)cc1)C(=O)Nc1nc(-c2cccc(-c3ccncc3)c2)cs1` [Compound 17, 4-amino-N-[(1S)-3-methylsulfanyl-1-[[4-[3-(4-pyridyl)phenyl]thiazol-2-yl]carbamoyl]propyl]benzamide], for which the “Duration of inhibition of the AML cell lines (FIG. 1)” value in the data set on AML cell lines (OCIAML5) is reported as “maintained through day 7”.
As for `COC[C@H](NC(=O)c1ccn(S(C)(=O)=O)c1)C(=O)Nc1nc(-c2cccc(N3C[C@@H](C)O[C@@H](C)C3)n2)cs1` [Compound 20, N—((S)-1-((4-(6-(cis-2,6-dimethylmorpholino)pyridin-2-yl)thiazol-2-yl)amino)-3-methoxy-1-oxopropan-2-yl)-1-(methylsulfonyl)-1H-pyrrole-3-carboxamide], the “Effect on OCI-AML2 tumor growth (FIG. 6)” value in data set [2] was “inhibited the growth”. For the same compound, in data set [3], the “Tolerability based on % body weight change” value is “well tolerated”.
Turning to `C[C@@H]1CN(c2cccc(-c3csc(NC(=O)CNC(=O)c4ccn(C(C)(C)C)c4)n3)n2)C[C@H](C)O1` [Compound 19, 1-(tert-butyl)-N-(2-((4-(6-(cis-2,6-dimethylmorpholino)pyridin-2-yl)thiazol-2-yl)amino)-2-oxoethyl)-1H-pyrrole-3-carboxamide], the “Effect on EOL-1 tumor growth (FIG. 5)” value in data set [4] is “delayed the growth”. In addition, the “Effect on MV4;11 tumor growth (FIG. 4)” value in data set [5] was “tumor stasis”. For the same compound, the “Tolerability based on % body weight change” value in data set [6] is given as “well tolerated”.
